pEC50, pKi: −log10 of the molar value.
What was measured:
Mus musculus [1] = species on record: Mus musculus; assay: In Vitro evaluation of antagonist activity induced by naloxone on mouse vas deferens preparation; format: functional
Mus musculus [2] = species on record: Mus musculus; assay: Effective concentration required for in Vitro evaluation of agonist activity on mouse vas deferens preparation; format: functional
Cavia porcellus [3] = species on record: Cavia porcellus; assay: Effective concentration of compound required for in vitro agonist potency in guinea-pig ileum myenteric plexus preparation (GPI); format: functional
Mus musculus [4] = species on record: Mus musculus; assay: Effective concentration of compound required for in vitro agonist activity on mouse vas deferens preparation; format: functional
Mus musculus [5] = species on record: Mus musculus; assay: In vitro evaluation of antagonist activity induced by naloxone on mouse vas deferens preparation; format: functional
Mu-type opioid receptor = Mu-type opioid receptor (Cavia porcellus, UniProt P97266); assay: Binding affinity by its ability to displace [3H]DAMGO from mu receptor in homogenates of guinea pig brain; format: tissue-based
[6] = molecular target: Kappa-type opioid receptor (Cavia porcellus, UniProt P41144); assay: Binding affinity by its ability to displace [3H]-U-69,593 from kappa receptor in homogenates of guinea pig brain; format: tissue-based
Rattus norvegicus = assay: Effective dose required for in vivo antinociceptive effect in rat when administered subcutaneously; format: functional; conditions: sc
Cavia porcellus [7] = species on record: Cavia porcellus; assay: In vitro evaluation of antagonistic activity induced by naloxone in guinea-pig ileum myenteric plexus preparation (GPI); format: functional
Mus musculus [8] = species on record: Mus musculus; assay: Effective concentration required for in vitro evaluation of agonist activity on mouse vas deferens preparation; format: functional
Cavia porcellus [9] = species on record: Cavia porcellus; assay: Effective concentration required for in vitro agonist potency in guinea-pig ileum myenteric plexus preparation (GPI); format: functional

Chain of Kappa-type opioid receptor (P41144 whole entry): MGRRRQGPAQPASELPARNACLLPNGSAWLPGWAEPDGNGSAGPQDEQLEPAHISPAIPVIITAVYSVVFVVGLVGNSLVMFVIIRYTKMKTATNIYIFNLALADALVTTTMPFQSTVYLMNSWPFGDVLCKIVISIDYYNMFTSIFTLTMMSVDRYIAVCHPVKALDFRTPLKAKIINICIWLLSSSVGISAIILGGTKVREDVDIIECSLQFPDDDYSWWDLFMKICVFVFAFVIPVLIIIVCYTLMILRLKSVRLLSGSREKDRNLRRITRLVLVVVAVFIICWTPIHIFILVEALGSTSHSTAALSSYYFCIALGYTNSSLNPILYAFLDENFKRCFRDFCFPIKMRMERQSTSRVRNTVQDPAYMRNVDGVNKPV
Chain of Mu-type opioid receptor (P97266 whole entry): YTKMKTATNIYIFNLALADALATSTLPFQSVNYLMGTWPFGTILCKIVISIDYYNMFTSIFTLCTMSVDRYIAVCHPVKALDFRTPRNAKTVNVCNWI

Question: `CC1(C)SSC(C)(C)[C@@H](NC(=O)[C@@H](N)Cc2ccc(O)cc2)C(=O)NCC(=O)N[C@@H](Cc2ccccc2)C(=O)N[C@H]1C(=O)O` was tested. Which Ke (Mus musculus [1]) did it give?
Answer: Its Ke is 20.4 nM.

Question: What about the pEC50 (Mus musculus [2]) of the same compound?
Answer: Its pEC50 is 8.55.

Question: `Br.COc1cccc2c1[C@]13CCN(CCc4ccccc4)C(C2)[C@]1(OC)CCC(=O)C3` was tested. Which pEC50 (Cavia porcellus [3]) did it give?
Answer: The pEC50 was 7.76.

Question: What about the pEC50 (Mus musculus [4]) of the same compound?
Answer: The pEC50 was 7.93.

Question: And the Ke (Mus musculus [5])?
Answer: The Ke was 1.67 nM.

Question: What about the pKi (Mu-type opioid receptor) of the same compound?
Answer: The pKi was 9.05.

Question: What about the pKi [6] of the same compound?
Answer: The pKi was 6.16.

Question: And the ED50 (Rattus norvegicus)?
Answer: Its ED50 is 0.037 mg/kg.

Question: And the Ke (Cavia porcellus [7])?
Answer: Its Ke is 0.54 nM.

Question: How did the pKi (Mu-type opioid receptor) turn out when `COc1cccc2c1[C@]13CCN(C)[C@H](C2)[C@]1(OC)CCC(=O)C3` was run?
Answer: Its pKi is 9.15.

Question: What about the pKi [6] of the same compound?
Answer: The pKi was 8.82.

Question: And the ED50 (Rattus norvegicus)?
Answer: The ED50 was 0.021 mg/kg.

Question: `COc1cccc2c1[C@]13CCN(CC4CC4)[C@H](C2)[C@]1(OC)CCC(=O)C3` [CYPRODIME BROMIDE] was tested. Which pKi [6] did it give?
Answer: Its pKi is 7.21.

Question: How did the pEC50 (Mus musculus [8]) turn out when `C[C@@H](NC(=O)[C@@H](N)Cc1ccc(O)cc1)C(=O)NCC(=O)N(C)[C@@H](Cc1ccccc1)C(=O)NCCO` [DAMGO] was run?
Answer: Its pEC50 is 7.61.

Question: What about the Ke (Mus musculus [5]) of the same compound?
Answer: Its Ke is 1.9 nM.

Question: What about the pEC50 (Cavia porcellus [9]) of the same compound?
Answer: The pEC50 was 7.93.

Question: And the Ke (Cavia porcellus [7])?
Answer: The Ke was 1.6 nM.

Question: `CN1CC[C@]23c4c5ccc(O)c4O[C@H]2[C@@H](O)C=C[C@H]3[C@H]1C5.Cl` [MORPHINE HYDROCHLORIDE] was tested. Which ED50 (Rattus norvegicus) did it give?
Answer: Its ED50 is 1.8 mg/kg.
